# Reference: patent publication US5756532A, “Aminomethyl-2 3 8 9-tetrahydro-7H-1 4-dioxino[2 3-E]-indol-8-ones and derivatives” (American Home Products Corporation, priority 1996, dated 1998)
# Columns and labels:
# mouse locomotor activity = test: Reduction of mouse locomotor activity (hypolocomotion); type: in vivo, mouse (male, CF-1); conditions: 20 min, sc, horizontal activity counts collected 10 to 20 minutes after dosing
# Method: The antipsychotic activity of the compounds of the invention was further established by a determination of the compounds' ability to reduce mouse locomotor activity according to the method of Martin and Bendensky, J. Pharmacol. Exp. Therap. 229: 706-711, 1984, in which mice (male, CF-1, Charles River, 20-30 g) were injected with vehicle or various doses of each drug and locomotor activity was measured for 30 minutes using automated infrared activity monitors (Omnitech-8×8 inch open field) located in a darkened room. ED50 's were calculated from the horizontal activity counts collected from 10 to 20 minutes after dosing using a nonlinear regression analysis with inverse prediction.
# dopamine D2 receptor = target: T1, dopamine D2 receptor (Rattus norvegicus, UniProt P61169); test: Affinity for the dopamine D2 receptor (3H-quinpirole, rat striatal brain tissue homogenate); type: binding; conditions: homogenized rat striatal brain tissue
# T1 construct: homogenized rat striatal brain tissue; from tissue; host or cells: rat striatum (homogenate)
# Method: Affinity for the dopamine D2 receptor was established by a modification of the standard experimental test procedure of Seemen and Schaus, European Journal of Pharmacology 203: 105-109, 1991, wherein homogenized rat striatal brain tissue is incubated with ^3 H-quinpirole and various concentrations of test compound, filtered and washed and counted in a Betaplate scintillation counter.
# dopamine autoreceptor = test: GBL model: effect on synthesis of dopamine (inhibition of dopa accumulation); type: in vivo, rat (male, Sprague-Dawley); conditions: rat, 10 mg/kg, sc; GBL 750 mg/kg ip, NSD-1015 100 mg/kg ip
# Method: The effect of the compounds of the invention on the synthesis of dopamine was established by the method of Walters and Roth, Naunyn-Schmiedeberg's Arch. Pharmacol. 296:5-14, 1976, in which rats (male, Sprague-Dawley, Charles River, 200-350 g) were administered vehicle or test drug ten minutes prior to the administration of gamma butyrolactone (GBL; 750 mg/kg, ip to inhibit dopaminergic impulse flow) and 20 minutes prior to NSD-1015 (100 mg/kg, ip to prevent the conversion of dopa to dopamine). Thirty minutes after NSD-1015 all rats were decapitated and the nucleus accumbens and the striatum were removed for analysis. Following perchloric acid extraction of the tissue, the extracts were placed over alumina columns to collect and concentrate dopa and other catechols. This eluate was then subjected to HPLC analysis using electrochemical detection to quantify the levels of dopa present. Dopamine autoreceptor agonists, under the conditions used above, inhibit dopa accumulation. […]
# T1 sequence (P61169 whole entry): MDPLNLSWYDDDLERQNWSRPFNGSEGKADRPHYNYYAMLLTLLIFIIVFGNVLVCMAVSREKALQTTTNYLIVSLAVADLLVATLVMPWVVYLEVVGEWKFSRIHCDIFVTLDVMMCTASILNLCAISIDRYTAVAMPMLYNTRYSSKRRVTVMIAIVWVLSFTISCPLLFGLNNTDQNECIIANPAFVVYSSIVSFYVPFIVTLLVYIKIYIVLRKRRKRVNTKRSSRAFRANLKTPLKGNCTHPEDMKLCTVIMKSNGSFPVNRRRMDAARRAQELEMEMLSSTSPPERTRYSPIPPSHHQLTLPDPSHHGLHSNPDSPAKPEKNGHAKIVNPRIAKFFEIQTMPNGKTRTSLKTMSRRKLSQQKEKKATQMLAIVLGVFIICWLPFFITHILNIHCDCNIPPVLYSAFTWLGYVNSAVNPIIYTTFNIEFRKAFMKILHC
IC50 (dopamine D2 receptor) [nM],Compound,ED50 (mouse locomotor activity) [mg/kg],inhibition of dopa accumulation (dopamine autoreceptor) [%]
0.37,O=C1Cc2c(ccc3c2O[C@@H](CNCc2ccccc2)CO3)N1 [Example 1],0.0031,67.5
0.14,"O=C1Cc2c(ccc3c2O[C@@H](CNCCCc2c[nH]c4ccccc24)CO3)N1 [Example 3, 2-{[3-(Indol-3-yl)-propylamino]-methyl}-2,3,8,9-tetrahydro-7H-1,4-dioxino-[2,3-e]indol-8-one]",0.039,–
0.34,Cc1ccc(CNC[C@H]2COc3ccc4c(c3O2)CC(=O)N4)cc1 [Example 7],0.005,–
1.3,CN(C)c1cccc(OCCCNC[C@H]2COc3ccc4c(c3O2)CC(=O)N4)c1 [Example 11],0.0138,–
0.51,"O=C1Cc2c(ccc3c2O[C@@H](CNCc2cccs2)CO3)N1 [Example 12, 2-{[(Thionphen-2-ylmethyl)-amino]-methyl}-2,3,8,9-tetrahydro-7H-1,4-dioxino[2,3-e]indol-8-one]",0.0005,–
0.43,O=C1Cc2c(ccc3c2O[C@@H](CNCC24CC5CC(CC(C5)C2)C4)CO3)N1 [Example 14],0.008,–
3.33,"O=C1Cc2c(ccc3c2O[C@H](CNCc2ccccc2)CO3)N1 [Example 15, 2-(Benzylamino-methyl)-2,3,8,9-tetrahydro-7H-4-dioxino[2,3-e]indol-8-one]",0.09,–
0.68,"COc1ccc(CNC[C@H]2COc3ccc4c(c3O2)CC(=O)N4)cc1 [Example 17, 2-[(4-Methoxy-benzylamino)-methyl]-2,3,8,9-tetrahydro-7H-1,4-dioxino[2,3-e]indol-8-one]",0.027,–
1.39,"Cc1ccc(CNC[C@H]2COc3cc(C)c4c(c3O2)CC(=O)N4)cc1 [Example 28, 2-[(4-Methyl-benzylamino)-methyl]-6-methyl-2,3,8,9-tetrahydro-7H-1,4-dioxino[2,3-e]indol-8-one]",0.024,–
2.15,Cc1cc2c(c3c1NC(=O)C3)O[C@@H](CNCc1ccc(F)cc1)CO2 [Example 32],–,–
0.57,"O=C1Cc2c(c(F)cc3c2O[C@@H](CNCc2ccccc2)CO3)N1 [Example 33, 2-(Benzylamino-methyl)-6-fluoro-2,3,8,9-tetrahydro-7H-1,4-dioxino[2,3-e]indol-8-one]",–,–
0.56,"O=C1Cc2c(c(F)cc3c2O[C@@H](CNCc2ccc(F)cc2)CO3)N1 [Example 34, 6-Fluoro-2-[(4-fluoro-benzylamino)-methyl]-2,3,8,9-tetrahydro-7H-1,4-dioxino[2,3-e]indol-8-one]",–,–
52.1,"Cc1ccc(C=C2C(=O)Nc3c(F)cc4c(c32)O[C@@H](CNCc2ccc(C)cc2)CO4)cc1 [Example 35, 6-Fluoro-2-[(4-methyl-benzylamino)-methyl]-9-(4-methyl-benzylidene)-2,3.8.9-tetrahydro-7H-1,4-dioxino[2,3-e]indol-8-one]",–,–
0.35,"Cc1ccc(CNC[C@H]2COc3cc(F)c4c(c3O2)CC(=O)N4)cc1 [Example 36, 6-Fluoro-2-[(4-methyl-benzylamino)-methyl]-2,3,8,9-tetrahydro-7H-1,4-dioxino[2,3-e]indol-8-one]",–,–
0.51,"CN(C)c1cccc(OCCCNC[C@H]2COc3cc(F)c4c(c3O2)CC(=O)N4)c1 [Example 37, 2-{[3-(3-Dimethylamino-phenoxy)-propylamino]-methyl}-6-fluoro-2,3,8,9-tetrahydro-7H-1,4-dioxino[2,3-e]indol-8-one]",–,–
1.08,"O=C1Cc2c(c(F)cc3c2O[C@@H](CNCC24CC5CC(CC(C5)C2)C4)CO3)N1 [Example 38, 2-{[(Adamantan-1-ylmethyl)-amino]-methyl}-6-fluoro-2,3,8,9-tetrahydro-7H-1,4-dioxino[2,3-e]indol-8-one]",–,–
0.78,"O=C1Cc2c(c(F)cc3c2O[C@@H](CNCCCc2c[nH]c4ccccc24)CO3)N1 [Example 39, 6-Fluoro-2-{[3-(1H-indol-3-yl)-propylamino]-methyl}-2,3,8,9-tetrahydro-7H-1,4-dioxino[2,3-e]indol-8-one]",0.064,–
0.53,"O=C1Cc2c(c(F)cc3c2O[C@@H](CNCc2ccc(Cl)cc2)CO3)N1 [Example 40, 2-[(4-Chloro-benzylamino)-methyl]-6-fluoro-2,3,8,9-tetrahydro-7H-1,4-dioxino[2,3-e]indol-8-one]",–,–
0.56,"O=C1Cc2c(c(F)cc3c2O[C@@H](CNCc2ccc(C(F)(F)F)cc2)CO3)N1 [Example 41, 6-Fluoro-2-[(4-trifluoromethyl-benzylamino)-methyl]-2,3,8,9-tetrahydro-7H-dioxino[2,3-e]indol-8-one]",–,–
0.67,"O=C1Cc2c(c(F)cc3c2O[C@@H](CNCCCCc2ccccc2)CO3)N1 [Example 42, 6-Fluoro-2-[(4-phenyl-butylamino)-methyl]-2,3,8,9-tetrahydro-7H-1,4-dioxino[2,3-e]indol-8-one]",–,–
0.98,"O=C1Cc2c(c(Cl)cc3c2O[C@@H](CNCc2ccc(Cl)cc2)CO3)N1 [Example 43, 6-Chloro-2-[(4-chloro-benzylamino)-methyl]-2,3,8,9-tetrahydro-7H-1,4-dioxino[2,3-e]indol-8-one]",–,–
1.43,"Cc1ccc(CNC[C@H]2COc3cc(Cl)c4c(c3O2)CC(=O)N4)cc1 [Example 44, 6-Chloro-2-[(4-methyl-benzylamino)-methyl]-2,3,8,9-tetrahydro-7H-1,4-dioxino[2,3-e]indol-8-one]",–,–
0.97,"O=C1Cc2c(c(Cl)cc3c2O[C@@H](CNCc2ccccc2)CO3)N1 [Example 45, 2-(Benzylamino)-methyl-6-chloro-2,3,8,9-tetrahydro-7H-1,4-dioxino[2,3-e]indol-8-one]",–,–
1,"O=C1Cc2c(c(Cl)cc3c2O[C@@H](CNCc2ccc(F)cc2)CO3)N1 [Example 46, 6-Chloro-2-[(4-fluoro-benzylaimino)-methyl]-2,3,8,9-tetrahydro-7H-1,4-dioxino[2,3-e_]indol-8-one]",–,–
